Experimental data as given in patent US11559586B2, “Nanoparticles for treatment of choroidal neovascularization and other indications” (Children's Medical Center Corporation, priority 2018, dated 2023).

System: laser-induced choroidal neovascularization
Experiment: Therapeutic study in laser-induced choroidal neovascularization model, CNV neovessel area
Assay type: in vivo, C57BL/6 mice
Conditions: free drug, IV day 1, 3, 5; equal dose of doxorubicin
Source text: Therapeutic effects of phototriggered activation of nanoparticles in CNV. The mouse model of laser-induced choroidal neovascularization mimics the neovascular aspect of wet AMD, and has been used extensively in studies of that disease. However, unlike the chronic development of wet AMD in human, the laser-induced mouse CNV model is acute—the optimum time point to assess neovessels in this model is between day 7 and day 14. After 14 to 21 days, spontaneous regression begins and lesion size decreases. The dosing regimen in this example was determined accordingly: treatment was initiated on day 7 when the lesions had formed, and its effects were assessed before spontaneous regression would begin on day 14.
In the in vivo therapeutic study, 200 microliters of PBS containing 1 mg of NP-[CPP]-doxo encapsulating 0.02 mg doxorubicin were injected via tail vein one week after photocoagulation (day 1 of treatment), and additional injections were given on day 3 and day 5. […] (The three drug-loaded groups contained equal doses of doxorubicin.) On day 7, mice were euthanized, the size of CNV lesions were assessed by fluorescent imaging of choroidal flat-mounts stained with isolectin GS-IB4 (which labels endothelial cells). […]

COc1cccc2c1C(=O)c1c(O)c3c(c(O)c1C2=O)C[C@@](O)(C(=O)CO)C[C@@H]3O[C@H]1C[C@H](N)[C@H](O)[C@H](C)O1 [doxorubicin]
reduction in neovessel area compared to PBS group: 26.8%
